Reference: US20250276955A1, “CORONAVIRUS MAIN PROTEASE INHIBITORS AND METHODS USING SAME” (Baylor College of Medicine, priority 2021, published 2025)
≈ marks a conversion by molar mass, not a printed value. Read-outs that look alike come from different tables or passages of the source.

Legend:
[1] = Metabolic stability in mouse liver microsomes; assay type: in vitro ADME; conditions: 0.5 mg protein/mL, 2.0 μM compound, 1.0 mM NADPH
Procedure: (§1) The samples were collected at specific time-points 0, 30, and 60 min in duplicate. The reactions were terminated by adding an equivalent volume of ice-cold methanol and vortexed. […] Three μL of the supernatant was analyzed by UHPLC-Q Exactive Orbitrap MS (Thermo Fisher Scientific, USA) equipped with 50 mm×4.6 mm column (XDB C-18, Agilent Technologies, USA). The column temperature was maintained at 40° C. The flow rate was at 0.3 mL/min with a 30% mobile phase (acetonitrile containing 0.1% formic acid). Q Exactive MS was operated in positive mode with electrospray ionization. Ultra-pure nitrogen was applied as the sheath (45 arbitrary unit), auxiliary (10 arbitrary unit), sweep (1.0 arbitrary unit) and the collision gas. […] MS data were acquired from 80 to 1,200 Da in profile mode.

[2] = Metabolic stability in human liver microsomes; assay type: in vitro ADME; conditions: 0.5 mg protein/mL, 2.0 μM compound, 1.0 mM NADPH
Procedure: as §1

[3] = target: T1, human thrombin (Homo sapiens, UniProt P00734); test: Thrombin fluorescence assay; assay type: biochemical; conditions: fluorescence assay
T1 construct: purchased Sigma-Aldrich MAK243

[4] = Apparent solubility in PBS buffer; conditions: for solubility: PBS buffer with 2% DMSO, aqueous buffer, kinetic from dmso stock
[5] = target: T2, HOVPro-Gi.1 (Norovirus, UniProt Q83883); test: Thermal shift, HOVPro-Gi.1; assay type: binding; conditions: 50 µM
T2 construct: HOVPro-Gi.1

[6] = test system: HOVPro-Gii.4; test: Thermal shift, HOVPro-Gii.4; assay type: binding; conditions: 50 µM
[7] = target: SARS-CoV-2 main protease (M^pro) (Severe acute respiratory syndrome coronavirus 2, UniProt P0DTD1); test: Protein thermal shift stability assay (SYPRO Orange); assay type: binding; conditions: 50 μM compound; […]; 50 µM
[8] = target: SARS-COV-2 M^pro-His6 (Severe acute respiratory syndrome coronavirus 2, UniProt P0DTD1); test: biochemical; assay type: biochemical
[9] = target: SARS-COV-2 M^pro (authentic N- and C-termini) (Severe acute respiratory syndrome coronavirus 2, UniProt P0DTD1); test: biochemical; assay type: biochemical; conditions: for M^pro Ki: 25 nM enzyme, 15 μM fluorescent peptide, Morrison equation, Inactive = less than 50% inhibition at 25 μM compound; for Ki,app: Table 5
[10] = target: T3, Human Cathepsin B (Homo sapiens, UniProt P07858); test: Cathepsin B assay; assay type: biochemical
T3 construct: purchased BPS Bioscience 79590
Procedure: A kit from BPS Bioscience (#79590) was used with adjustments to the manufacturer's protocol as follows: The activated enzyme was diluted 250-fold just before use, and the reaction was run at RT in black 96 half-area plates in a total reaction volume of 50 uL containing 0.01% Tween-20. Instead of measuring endpoints at 60 min the increase in fluorescence (Ex 360 nm, Em 460 nm) per second (RFU/s) was obtained from linear progress curves over 10 min. Fractional activities were calculated from reactions with no inhibitors. E-64 was used as a positive control.

[11] = test system: SARS-COV-2 (USA_WA1/2020 isolate) in VERO E6 cells; test: Real-Time Cell Analysis (RTCA) assay of SARS-COV-2 replication; assay type: cell-based; conditions: VERO E6 cells, 75 h
[12] = 25 nM enzyme, 15 μM fluorescent peptide, Morrison equation, Inactive = less than 50% inhibition at 25 μM compound
[13] = Table 3, column a (footnote not given), read-out: Kiapp (nM)^a
[14] = Ki, app towards SARS-CoV-2 M^pro, athentic termini, authentic termini
[15] = Table 3, column b (footnote not given), read-out: Kiapp (nM)^b
[16] = Kiapp (nM)^b, Table 3, column b (footnote not given)
[17] = Table 3, column a (footnote not given)
[18] = Table 3, column b (footnote not given)

T2 sequence (Q83883 1101-1281): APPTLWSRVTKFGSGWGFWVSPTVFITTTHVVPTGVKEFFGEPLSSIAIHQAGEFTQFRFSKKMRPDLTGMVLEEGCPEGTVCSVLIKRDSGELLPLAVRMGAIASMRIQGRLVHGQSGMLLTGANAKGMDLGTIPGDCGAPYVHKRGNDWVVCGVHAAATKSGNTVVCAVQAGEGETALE

SMILES: Cc1nnc2n1-c1ccc(Cl)cc1C(c1ccccc1)=NC2 [Alprazolam, reference compound]
- MLM t1/2 (half-life) [1]: 296
- HLM t1/2 (half-life) [2]: 832

SMILES: CCCC(NC(=O)c1cccc2nc(-c3cncc4ccccc34)n([C@H]3C[C@H](C(=O)NC)C3)c12)c1ccc(C(F)(F)F)cc1 (some centres unmarked) [CDD-1732]
- Thrombin inhibition [3]: None
- Measured apparent solubility in PBS buffer (2% DMSO) ([4]; PBS buffer, 2% DMSO): 26.9 µM
- ΔTm of HOVPro-Gi.1 at 50 μM compound conc. [5]: −0.82 °C
- ΔTm of HOVPro-Gii.4 at 50 μM compound conc. [6]: −1.24 °C
- ΔTm of Mpro at 50 μM compound conc. [7]: 0.61 °C

SMILES: COc1cc(-c2cccc3[nH]ncc23)cc(CO)c1OCC(=O)N(C)C [CDD-1776]
- M^pro-His Ki [8, 12]: Inactive
- M^pro inhibition (in words) [9]: completely abolished the activity
- M^pro Ki [9]: Inactive
- Ki,app [9]: Inactive

SMILES: CCC[C@H](NC(=O)c1cccc2nc(-c3cncc4ccccc34)n([C@H]3CC[C@H](C(=O)NC)C3)c12)c1ccc(C(F)(F)F)cc1 [CDD-1790]
- solubility [4]: 52.1 µM (≈ 32 µg/mL)
- Ki [8, 13]: 621 ± 46 nM
- Ki [9, 14]: 663 nM
- Ki [9, 15]: 663 ± 66 nM

SMILES: COc1cc(-c2cccc3[nH]ncc23)ccc1OCC(=O)N(C)C [CDD-1793, 2-(4-(1H-indazol-4-yl)-2-methoxyphenoxy)-N,N-dimethylacetamide]
- M^pro-His Ki [8, 12]: Inactive
- M^pro inhibition (in words) [9]: completely abolished the activity
- M^pro Ki [9]: Inactive
- Ki,app [9]: Inactive

SMILES: CCC[C@H](NC(=O)c1cccc2nc(-c3cncc4ccccc34)n([C@H]3C[C@H](C(=O)NC)C3)c12)c1cccc(C(F)(F)F)c1 [CDD-1795]
- solubility [4]: 50.4 µM (≈ 30.2 µg/mL)
- Ki [8, 13]: 29.4 ± 4.3 nM
- Ki [9, 14]: 35.2 nM
- Ki [9, 16]: 35.2 ± 4.9 nM
- Human Cathepsin B, Fractional Remaining Activity [10]: 1.07

SMILES: CCC[C@H](NC(=O)c1cccc2nc(-c3cncc4ccccc34)n(C(C)C)c12)c1ccc(C(F)(F)F)cc1 [CDD-1804]
- Kiapp (nM)^a [8, 17]: Inactive
- Kiapp (nM)^b [9, 18]: Inactive

SMILES: CCC[C@H](NC(=O)c1cccc2nc(-c3cncc4ccccc34)n(C3CCC3)c12)c1ccc(C(F)(F)F)cc1 [CDD-1806]
- solubility [4]: 0.1 µM (≈ 0.0543 µg/mL)
- Ki [8]: 165 ± 12.9 nM
- Ki [9, 14]: 137 nM
- Ki [9, 16]: 137 ± 11.6 nM
- Human Cathepsin B, Fractional Remaining Activity [10]: 0.94

SMILES: CCC[C@H](NC(=O)c1cccc2nc(-c3cncc4ccccc34)n(C3CCNCC3)c12)c1ccc(C(F)(F)F)cc1 [CDD-1818]
- Ki [8, 13]: 1470 ± 152 nM
- Ki [9, 15]: 1710 ± 128 nM

SMILES: CNC(=O)[C@H]1C[C@H](n2c(-c3cncc4ccccc34)nc3cccc(C(=O)NC(C)c4ccc(C(F)(F)F)cc4)c32)C1 (some centres unmarked) [CDD-1829]
- Ki [8, 13]: 45.7 ± 3.7 nM
- Ki [9, 15]: 47.9 ± 4.7 nM

SMILES: CCC[C@H](NC(=O)c1cccc2nc(-c3cncc4ccccc34)n(CCCC(=O)NC)c12)c1ccc(C(F)(F)F)cc1 [CDD-1830]
- Ki [8, 13]: 5.6 ± 0.5 nM
- Ki [9, 15]: 6.5 ± 1 nM

SMILES: CCC[C@H](NC(=O)c1cccc2nc(-c3cccnc3)n([C@H]3C[C@H](C(=O)NC)C3)c12)c1ccc(C(F)(F)F)cc1 [CDD-1831]
- Kiapp (nM)^a [8]: Inactive
- Kiapp (nM)^b [9]: Inactive

SMILES: CNC(=O)[C@H]1C[C@H](n2c(-c3cncc4ccccc34)nc3cccc(C(=O)N[C@@H](C)c4ccccc4)c32)C1 [CDD-1841]
- Ki [8, 13]: 571 ± 72.7 nM
- Ki [9, 15]: 565 ± 55.3 nM

SMILES: CNC(=O)[C@H]1C[C@H](n2c(-c3cncc4ccccc34)nc3cccc(C(=O)NC(C)C)c32)C1 [CDD-1842]
- Kiapp (nM)^a [8]: Inactive
- Kiapp (nM)^b [9]: Inactive

SMILES: CCC[C@H](NC(=O)c1cccc2nc(-c3cncc4ccccc34)n([C@H]3C[C@H](C(=O)NC)C3)c12)c1ccccc1 [CDD-1843]
- Kiapp (nM)^a [8, 17]: Inactive
- Kiapp (nM)^b [9, 18]: Inactive

SMILES: COc1cc(-c2cccc3c2cnn3C)cc(C=O)c1OCC(=O)N(C)C [CDD-1847, 2-(2-formyl-6-methoxy-4-(1-methyl-1H-indazol-4-yl)phenoxy)-N,N-dimethylacetamide]
- prevention of SARS-COV-2 induced cell death (in words) [11]: unable to prevent cell death
- M^pro-His Ki [8, 12]: Inactive
- M^pro inhibition (in words) [9]: completely lost activity
- M^pro Ki [9]: Inactive

SMILES: COc1cc(-c2cccc3[nH]ncc23)cc(C(C)=O)c1OCC(=O)N(C)C [CDD-1883]
- M^pro-His Ki [8, 12]: Inactive
- M^pro Ki [9]: Inactive

SMILES: CNC(=O)CCCn1c(-c2ccc3cnccc3c2)nc2cccc(C(=O)N[C@@H](C)c3ccc4ccccc4c3)c21 [CDD-1884]
- Kiapp (nM)^a [8, 17]: Inactive
- Kiapp (nM)^b [9, 18]: Inactive

SMILES: CNC(=O)CCCn1c(-c2cccc3ccccc23)nc2cccc(C(=O)N[C@@H](C)c3ccc4ccccc4c3)c21 [CDD-1885]
- Kiapp (nM)^a [8, 17]: Inactive
- Kiapp (nM)^b [9, 18]: Inactive

SMILES: COc1cc(-c2cccc3[nH]ncc23)cc(C(=O)CO)c1OCC(=O)N(C)C [CDD-1886]
- Ki ([8]; 25 nM enzyme, 15 μM fluorescent peptide, Morrison equation, Inactive = less than 50% inhibition at 25 μM compound, read-out: M^pro-His Ki): 15700 ± 1200 nM
- decrease of M^pro inhibition relative to CDD-1713 [9]: greater than 100 fold
- Ki ([9]; read-out: M^pro Ki): 21200 ± 1500 nM

SMILES: CNC(=O)CCCn1c(-c2ccc3cccnc3n2)nc2cccc(C(=O)N[C@@H](C)c3ccc4ccccc4c3)c21 [CDD-1905]
- Kiapp (nM)^a [8, 17]: Inactive
- Kiapp (nM)^b [9, 18]: Inactive

SMILES: CNC(=O)CCCn1c(-c2ccnc3ccccc23)nc2cccc(C(=O)N[C@@H](C)c3ccc4ccccc4c3)c21 [CDD-1906]
- Kiapp (nM)^a [8, 17]: Inactive
- Kiapp (nM)^b [9, 18]: Inactive

SMILES: CNC(=O)CCCn1c(-c2cnccc2C)nc2cccc(C(=O)N[C@@H](C)c3ccc4ccccc4c3)c21 [CDD-1924]
- Ki [9, 15]: 426 ± 46.4 nM

SMILES: CNC(=O)CCCn1c(-c2cncc3ccccc23)nc2cccc(C(=O)NCc3ccc4ccccc4c3)c21 [CDD-1925]
- Ki [8, 13]: 51.3 ± 7.5 nM
- Ki [9, 15]: 42.5 nM

SMILES: CNC(=O)CCCn1c(-c2ccc(N)nc2)nc2cccc(C(=O)N[C@@H](C)c3ccc4ccccc4c3)c21 [CDD-1926]
- Kiapp (nM)^a [8, 17]: Inactive
- Kiapp (nM)^b [9, 18]: Inactive

SMILES: CCC[C@H](NC(=O)c1cccc2nc(-c3cncc4ccccc34)n(CCCC(=O)NC)c12)c1ccc(C)cc1 [CDD-1934]
- Ki [9, 15]: 27.4 ± 2.4 nM

SMILES: CCOC(=O)/C=C/c1cc(-c2cccc3[nH]ncc23)cc(OC)c1OCC(=O)N(C)C [CDD-1971]
- M^pro-His Ki [8, 12]: Inactive
- M^pro Ki [9]: Inactive

SMILES: C[C@H](NC(=O)c1cccc2nc(-c3cncc4ccccc34)n(CCCC(=O)O)c12)c1ccc2ccccc2c1 [CDD-1972]
- Ki [9, 15]: 87.9 ± 8.4 nM

SMILES: COC(=O)c1cc(-c2cccc3[nH]ncc23)cc(OC)c1OCC(=O)N(C)C [CDD-1982]
- M^pro-His Ki [8, 12]: Inactive
- M^pro Ki [9]: Inactive

SMILES: O=C1CCOc2ccc(-c3cccc4[nH]ncc34)cc21 [CDD-2037]
- M^pro-His Ki [8, 12]: Inactive
- M^pro Ki [9]: Inactive

SMILES: CN(C)C(=O)COc1ccc(-c2cccc3[nH]ncc23)cc1C#N [CDD-2038]
- M^pro-His Ki [8, 12]: Inactive
- M^pro Ki [9]: Inactive
